From publication PMC5554167, “Intestinal transepithelial permeability of oxytocin into the blood is dependent on the receptor for advanced glycation end products in mice” (Scientific Reports, 2017)

Experiments:
[1] = [3H]OT administered to lactating rats; cited from earlier work
[2] = Plasma OT after suckling of dam's milk in pups, estimate of availability; format: in vivo, mice
Experimental: […] No clear difference in the OT level was observed between male and female pups.
An estimation of bioavailability was performed in adult mice. Fifty ng/mL of OT was detected after oral delivery of 10 μg of OT. Young adults weigh approximately 30 g and have 2.3 mL blood, so approximately 1% of oral OT can be absorbed. We have previously identified OT in the mammary tissues of mouse dams and in the milk curd inside the oesophagi of pups[13]. To determine the OT concentrations in milk, we needed to collect milk from the mothers. One common method is to collect milk after stimulating secretion with external OT. Because such milk contains external OT, we were unable to calculate the OT concentrations in milk. However, we carried out a new collection method without exogenous OT stimulation. We obtained samples at 5 days after parturition, and the concentration of milk OT was 1,200 pg/mL. If we estimate a pup’s milk intake to be 100 μL, the pups will ingest 120 pg of OT. […] According to Tanaka et al.[11], when [^3H]OT is administered to lactating rats, the radioactivity of intact OT in the neonatal content is 4.4% of the counts obtained for the maternal plasma. […]
(§1) OT or AVP immunoreactivity levels were quantified by using OT and AVP enzyme immunoassay (EIA) kits (Enzo Life Sciences, NY, USA), respectively. […]

[3] = Plasma OT after oral delivery of OT in adult mice (EIA); format: in vivo
Experimental: In adult male mice (8 weeks old), when oral OT was administered at the same dose used for neonates (1 μg/mouse), as in Fig. 1b, no increase in the plasma OT concentration was observed (data not shown). To examine whether permeability exists in the adult intestine after barrier formation, a 10-fold higher volume of OT (100 μM × 100 μL) was used for oral delivery (10 μg/mouse). Blood samples were collected from anesthetized mice using a tail snip procedure, and OT concentrations were measured (Fig. 5a, inset).
Milk-borne OT was fed by mothers for 20 min after 20 min of starvation. A synthetic OT solution (100 µM; 10 μL for pups and 100 μL for adults) was administered orally. The same dose of [ILe^13C, ^15N]OT was delivered orally to pups. For oral administration, pups or adult mice were held by hand, and the OT solution was dispensed into their mouths using polypropylene tips.
(§2) Approximately 30 μL of blood was collected from the facial vein of neonates after quick cold anesthesia on ice (Fig. 1a; ref. [67], [68]). […]
as §1

[4] = cited from earlier work
Excerpt: Breast milk contains a dynamic supply of hormones, including oxytocin (OT[4], [5], [10]–[15]), which is concentrated from the mother’s general circulation. […] OT in early life plays a role in the development of the social brain and in establishing social behaviour in adults, [20]–[23]. Therefore, breast milk not only nourishes beneficial microbes and provides immunity but also appears to improve well-being by improving human communication, [24]–[28]. Altho ...

[5] = Plasma OT after intestinal delivery of OT in pups (EIA); format: in vivo, mice
Experimental: To confirm that the above increase after oral administration was primarily owing to permeability from the intestine, 5 μL of 100 μM OT (0.5 μg/pup) was applied directly into the small intestine, bypassing the mouth, buccal mucosal membrane, and/or upper parts of the digestive tract, including the oesophagus and stomach. The plasma OT in blood samples collected from the neck (Fig. 2a, inset) reached a peak at 10 min and decreased at 60 min and 120 min after intestinal application (Supplementary Fig. 1). […] The plasma OT level was higher at PND1 and PND3 than at PND7 in the group injected with OT (***P < 0.001 and **P < 0.01; Fig. 2a).
OT (100 μM) was injected through needles (28 G) into the proximal part (1~2 cm from the pylorus) of the small intestine of pups (5 μL) and adults (100 μL) under ketamine anaesthesia ([…] intraperitoneally), after the abdominal skin was cut to expose the small intestine in the abdominal cavity. The intestine was returned to the cavity or covered with paper and rinsed with saline. For the isolated pup intestines, 30 μL of 10 μM OT was injected at the distal end.
as §2, §1

[6] = much longer in mucosal tissues; cited from earlier work
Excerpt: OT absorption through the intestine was more difficult to detect in adults. The reasons for this difference with age may be owing to the progressive digestion of OT and strengthening of the gastrointestinal tract barrier. Similarly, a gradual decline in plasma OT concentrations during development appears to be caused by establishment of the intestinal barrier and intestinal digestion (Ref. [49] and Fig. 3d). Digestion is at a low level at birth and increases progressively during the first week in mice and humans. However, digestion of OT takes more than 30 min and is much longer in mucosal ...

[7] = Plasma OT after oral delivery of OT in pups (EIA); format: in vivo, mice; conditions: both sexes, C57BL/6N, 1 μg/mouse, wild-type pups PND6, oral 1 μg of OT/mouse, n = 5–8, read-out: Time of peak plasma OT concentration (converted)
Experimental: The possibility of transport during the suckling period of development (from PND1 to PND15) was confirmed by comparing plasma OT levels at 10 min after oral delivery with 10 μL of 100 μM synthetic OT solution (1 μg/pup) or the same volume of phosphate buffered saline (PBS) to male and female pups after fasting for 30 min. […] The plasma OT concentrations after oral OT delivery remained at higher levels at PND3–5 than in the saline controls (two-way analysis of variance (ANOVA), F 8.90 = 3.32, P < 0.002: Bonferroni’s post hoc tests for differences between OT and PNDs (^a P < 0.001, ^b P < 0.01, and ^c P < 0.05 from the value at PND8) and between OT and PBS (^d P < 0.01). The OT concentration dropped suddenly after PND6, although it remained higher than that in the saline control group. At PND8 and PND15, no concentration difference in plasma OT levels was observed between pups orally administered OT vs. those administered PBS.
The time profile of the plasma OT concentration after oral administration of OT peaked at 10 min in pups at PND6 (n = 5–8, one-way ANOVA, F 5,37 = 3.302, P < 0.02 from the control value; Fig. 1c). The plasma OT level depended on the oral OT dose in pups at PND6 (one-way ANOVA, F 3,24 = 20.35, P < 0.0001; Fig. 1d). […]
as §1

## [^3H]OT: tritium-labelled oxytocin administered to lactating rats in a cited study
[1]
  Radioactivity of intact OT in the neonatal content, % of the counts of maternal plasma: 4.4%

## CC[C@H](C)[C@@H]1NC(=O)[C@H](Cc2ccc(O)cc2)NC(=O)[C@@H](N)CSSC[C@@H](C(=O)N2CCC[C@H]2C(=O)N[C@@H](CC(C)C)C(=O)NCC(N)=O)NC(=O)[C@H](CC(N)=O)NC(=O)[C@H](CCC(N)=O)NC1=O [OT, oxytocin]
[2]; PND5 pups, milk OT 1,200 pg/mL, milk intake 100 μL (120 pg), blood volume 200 μL, increase 20 pg
  Availability of milk OT: 16.6%
[2]; pups fed with dam's milk
  Increase of plasma OT after suckling: approximately 100 pg/mL
[3]; adult male mice (8 weeks old), oral 1 μg/mouse, data not shown
  Change of plasma OT concentration: no increase
[3]; adult mice, oral 10 μg of OT, assumes 30 g weight and 2.3 mL blood
  Oral OT absorbed (estimated bioavailability): approximately 1%
[4]
  Stability in gastric acid: relatively stable
[5]; both sexes, C57BL/6N, mouse, plasma, pups (PND5, Supplementary Fig. 1), 0.5 μg/pup into the small intestine, read-out: Time of peak plasma OT concentration (converted)
  Tmax: 10 min
[5]; wild-type pups, 10 min after intestinal OT injection (0.5 μg/pup)
  Decrease of plasma OT concentration from PND1 to PND7: approximately 4.6 fold
[6]
  Time for digestion of OT: more than 30 min
[7]
  Tmax: 10 min
